Target: SrtA (SrtAΔN59, residue 60–206) (Staphylococcus aureus, UniProt Q2FV99)
Experiment: SrtA enzymatic inhibition, FRET assay
Format: biochemical

O=C(O)COc1ccccc1C1Nc2cccc3cccc(c23)N1 [Compound 1, (2-(2,3-dihydro-1H-perimidin-2-yl)-phenoxy)-acetic acid] showed an IC50 of 47.2 ± 5.9 µM.
